Results taken from patent US20260294946A1, “METHOD TO REDUCE FEED CONVERSION RATIO IN A FARMED ANIMAL” (Inbiose N.V., priority 2023, published 2026).

Tests used:
[1] = Trial in calves: live weight, average daily gain, feed intake, feed conversion ratio (12 weeks); type: in vivo, Holstein Friesian calves
From the text: (§1) Holstein Friesian calves (2- to 3-week-old, 95% male) were transported from different farms to the experimental facility of Denkavit (Voorthuizen, The Netherlands) where the animals were reared. The calves were randomly and gender-equally divided in four groups based on experimental calf milk replacer (CMR): group A (placebo—standard CMR powder of the farm), group B (standard CMR powder supplemented with 0.005% dry wt. 2′FL), group C (standard CMR powder supplemented with 0.025% dry wt. 3′SL and 0.015% w/w 6′SL) and group D (standard CMR powder supplemented with 0.005% dry wt. 2′FL, 0.025% dry wt. 3′SL and 0.015% dry wt. 6′SL). The calf milk replacer was administered as a liquid to the calves (water was added to the CMR powder to obtain 150 grams CMR powder per liter liquid CMR). Each group involved 100 calves, assigned into four rows (25 calves per row) of two compartment blocks. Each row contained five pens, where four to six calves were living in one pen.
Starting from the day of arrival, calves received standard calf milk replacer (CMR) during a period of 9 weeks. Group A only received the CMR, while the CMR supplied to groups B, C and D was supplemented with MMOs as outlined in the section titled “Animals.” Calf starter (concentrates) and straw were introduced gradually from day 6 till the end of the experiment (12 weeks) while calves had access to corn silage at week 11 and 12. Feeds were provided ad libitum to calves twice a day in the morning and evening and were daily recorded based on rows (concentrates, straw, corn silage) or groups (CMR) consumption.
Calves were followed up by the farm staff since arrival until 12 weeks. Fecal consistency in scale 1-4 (Larson et al., 1977, J. Dairy Science, 60(6): p. 989-991) was recorded daily for the first ten days since arrival. Number of mortalities and signs of adverse effects were registered daily. The animals were treated prophylactically or metaphylactically (herd treatment) with 1 g oxytetracycline 100% (at day 4), 0.5 g Doxylin 50% WSP and 0.8 g Bromhexine 2% (at day 13), and 3.1 ml Tilmicosol 250 mg/ml (at day 24) to prevent and/or treat acute lung inflammation. Individual treatments were followed by remarks of the farm staff and diagnostics of farm veterinary practitioners. Disease incidences and medicinal usage based on individual treatments were recorded to compare between treatment groups. The incidence of diarrhea was 0% in all groups at the start of the study, and 1% (%; group A), 0% (group B), 1% (group C) and 2% (group D) after 12 weeks. Live weight of the animals was monitored at arrival (d1), two weeks (W2), six weeks (W6), ten weeks (W10) and 12 weeks (W12) since arrival. Feed conversion ratio (FCR) of each period was computed based on the input of daily weight gain and daily feed intake.
Prior to analysis, the data of live weight and FCR were checked for outliers. A data point was considered an outlier if it could reasonably be expected that observed trail results were due to other factors than the treatment, e.g., due to sickness. An ANCOVA model as below was used to analyze the live weight data (R version 4.1.2.).
Differences among means with P<0.05 were accepted as significant. Differences among means with 0.05<P<0.10 were accepted as tendency. Multiple comparisons were done with Tukey.
Other performance data were analyzed using a mixed linear model using treatments as fixed and Row as random term using 1me in the nlme package.

[2] = Trial in calves: health and safety observation (adverse effects, mortality, diarrhea); type: in vivo, Holstein Friesian calves; conditions: after 12 weeks
From the text: as §1, with “Each row contained five pens, where four to six calves were living in one pen.” left out
Calves were followed up by the farm staff since arrival until 12 weeks. Fecal consistency in scale 1-4 (Larson et al., 1977, J. Dairy Science, 60(6): p. 989-991) was recorded daily for the first ten days since arrival. […] Disease incidences and medicinal usage based on individual treatments were recorded to compare between treatment groups. […] Live weight of the animals was monitored at arrival (d1), two weeks (W2), six weeks (W6), ten weeks (W10) and 12 weeks (W12) since arrival. […]

[3] = system: Blautia obeum; assay: Fecal samples of piglets, 16S rRNA sequencing; type: in vivo
Method: (§2) On d22, from one piglet per pen (piglet with median weight at weaning) a fresh feces sample was collected and stored at −80° C. Total fecal DNA of 16 selected piglets (1 per pen) were extracted from 200 mg feces. ZymoBIOMICS™ DNA miniprep kit (Zymo Research) in combination with a FASTPREP® 24 device was used to extract and purify the microbial DNA as instructed by the manufacturer. Purified total DNA were eluted in 100 μl and were quickly checked for the concentration and quality using Nanodrop (Implen NANOPHOTOMETER®) before storage at −20° C.
(§3) Total DNA were submitted to Eurofins (GATC, Germany) to perform 16S rRNA sequencing using their INVIEW microbiome high specificity package. Briefly, total DNA were first amplified the hyper-variable regions 16S and integrated the barcodes through PCR. The PCR products were purified, then ligated with adapter for library preparation. The sequencing was done using PacBio sequencing technology, guaranteed for 25000 reads, mean read length […].
(§4) Amplicon analysis was performed using Mothur pipeline (mothur.org). Processing of the raw sequencing data was done according to the Mothur standard operating procedure (mothur.org/wiki/MiSeq_SOP). Alignment was accomplished using DAIRYdb 16S rRNA gene database (GitHub—marcomeola/DAIRYdb). Sequences were classified and any sequences classified as Chloroplast, Mitochondria, unknown, Archaea, or Eukaryota were removed from the data set. Preclustering of the sequences and removal of chimeric sequences using a Mothur-formatted version of the Ribosomal Database Project (RDP) training set and uchime, based on the Mothur protocol. Sequences were classified into Operational Taxonomic Units (OTUs) of ≥97% sequence identity. Singleton and doubleton reads were removed.
(§5) Data statistics of 16S data and figure plotting were performed in RStudio (rstudio.com/). Microbiome data was normalized in relative abundance or cpm (counts per million). The treatment effect of 2′FL in the microbiome abundance data was evaluated on normalized relative abundance (in %) using Mann-Whitney U test.

[4] = system: Faecalibacterium prausnitzii; assay: Fecal samples of piglets, 16S rRNA sequencing; type: in vivo
Method: as §2, §3, §4, §5

[5] = system: Lactobacillus mucosae; assay: Fecal samples of piglets, 16S rRNA sequencing; type: in vivo
Method: as §2, §3, §4, §5

[6] = system: Prevotella Sp. RS2; assay: Fecal samples of piglets, 16S rRNA sequencing; type: in vivo
Method: as §2, §3, §4, §5

For 2′-fucosyllactose [2′FL], the Live weight ([1]; W 0 (arrival), mean ± SD) was 45.6 ± 2.8 kg, the “Feed conversion ratio (FCR)” value ([1]; W 0-W 2) was 1.34 and the Average daily gain ([1]; W 0-W 2, mean ± SD) was 600.1 ± 155.0 g/day. For the same substance, the “Feed conversion ratio (FCR)” value ([1]; W 0-W 6) was 1.53, the “Feed conversion ratio (FCR)” value ([1]; W 0-W 10) was 2.01 and the “Feed conversion ratio (FCR)” value ([1]; W 0-W 12) was 2.28. The Average daily gain ([1]; W 0-W 12, mean ± SD) was 1099.5 ± 141.7 g/day, the Live weight ([1]; W 2, mean ± SD) was 54.0 ± 3.3 kg and the “Feed conversion ratio (FCR)” value ([1]; W 2-W 6) was 1.67. The Average daily gain ([1]; W 2-W 6, mean ± SD) was 954.9 ± 176.8 g/day, the Live weight ([1]; W 6, mean ± SD) was 80.7 ± 7.1 kg and the “Feed conversion ratio (FCR)” value ([1]; W 6-W 10) was 2.51. The Average daily gain ([1]; W 6-W 10, mean ± SD) was 1267.9 ± 202.2 g/day, the “Feed conversion ratio (FCR)” value ([1]; W 6-W 12) was 2.76 and the Live weight ([1]; W 10, mean ± SD) was 116.2 ± 11.0 kg. The “Feed conversion ratio (FCR)” value ([1]; W 10-W 12) was 3.44, the Average daily gain ([1]; W 10-W 12, mean ± SD) was 1484.6 ± 260.7 g/day and the Live weight ([1]; W 12, mean ± SD) was 136.8 ± 12.7 kg. For the same substance, the “Average feed intake, CMR” value ([1]; calf milk replacer, 12 weeks trial) was 42.3 kg, the “Average feed intake, Concentrates” value ([1]; concentrates, 12 weeks trial, mean ± SD) was 131.6 ± 6.2 kg and the “Average feed intake, Corn silage” value ([1]; corn silage, mean ± SD) was 14.8 ± 1.3 kg. For the same substance, the “Average feed intake, Straw” value ([1]; straw, 12 weeks trial, mean ± SD) was 16.0 ± 0.8 kg, the incidence of diarrhea [2] was 0% and the effect on abundance ([3]; d 22) was “promoted”. The “Relative abundance in fecal samples” value ([3]; weaning day (d 22), P=0.0428 vs control) was 0.1672%, the effect on abundance ([4]; d 22) was “promoted” and the “Relative abundance in fecal samples” value ([4]; weaning day (d 22), P=0.00965 vs control) was 0.278%. The effect on abundance ([5]; d 22) was “promoted”, the “Relative abundance in fecal samples” value ([5]; weaning day (d 22), P=0.0263 vs control) was 0.1586% and the effect on abundance ([6]; d 22) was “inhibited”. For the same substance, the “Relative abundance in fecal samples” value ([6]; weaning day (d 22), P=0.0129 vs control) was 0.1093%.
